# Measurements published in patent publication US11136291B2, “Antifungal compounds and uses thereof” (Dana-Farber Cancer Institute, Inc., priority 2016, dated 2021).
# Columns and labels:
# CgGal11A KIX domain = molecular target: T1, CgGal11A KIX domain (Candida glabrata, UniProt Q6FRS9); test: Fluorescence polarization (FP) binding/competition assay, CgPdr1 AD30 with CgGal11A KIX; conditions: calculated from measured Kd and IC50; read-out: apparent Ki
# T1 construct: other: compared with iKIX1; other: GST-CgGal11A KIX 3 μM, 30 nM FITC-CgPdr1 AD30; Kd of CgPdr1 AD30 for CgGal11A KIX domain; other: FP titration, 30 nM FITC-CgPdr1 AD30; Kd of the CgPdr1 AD for the CgGal11A KIX domain; apparent Ki; fused on or other part: N-terminal His6-GST tag
# T1 sequence (Q6FRS9 whole entry, looked up, the tested form may be a part): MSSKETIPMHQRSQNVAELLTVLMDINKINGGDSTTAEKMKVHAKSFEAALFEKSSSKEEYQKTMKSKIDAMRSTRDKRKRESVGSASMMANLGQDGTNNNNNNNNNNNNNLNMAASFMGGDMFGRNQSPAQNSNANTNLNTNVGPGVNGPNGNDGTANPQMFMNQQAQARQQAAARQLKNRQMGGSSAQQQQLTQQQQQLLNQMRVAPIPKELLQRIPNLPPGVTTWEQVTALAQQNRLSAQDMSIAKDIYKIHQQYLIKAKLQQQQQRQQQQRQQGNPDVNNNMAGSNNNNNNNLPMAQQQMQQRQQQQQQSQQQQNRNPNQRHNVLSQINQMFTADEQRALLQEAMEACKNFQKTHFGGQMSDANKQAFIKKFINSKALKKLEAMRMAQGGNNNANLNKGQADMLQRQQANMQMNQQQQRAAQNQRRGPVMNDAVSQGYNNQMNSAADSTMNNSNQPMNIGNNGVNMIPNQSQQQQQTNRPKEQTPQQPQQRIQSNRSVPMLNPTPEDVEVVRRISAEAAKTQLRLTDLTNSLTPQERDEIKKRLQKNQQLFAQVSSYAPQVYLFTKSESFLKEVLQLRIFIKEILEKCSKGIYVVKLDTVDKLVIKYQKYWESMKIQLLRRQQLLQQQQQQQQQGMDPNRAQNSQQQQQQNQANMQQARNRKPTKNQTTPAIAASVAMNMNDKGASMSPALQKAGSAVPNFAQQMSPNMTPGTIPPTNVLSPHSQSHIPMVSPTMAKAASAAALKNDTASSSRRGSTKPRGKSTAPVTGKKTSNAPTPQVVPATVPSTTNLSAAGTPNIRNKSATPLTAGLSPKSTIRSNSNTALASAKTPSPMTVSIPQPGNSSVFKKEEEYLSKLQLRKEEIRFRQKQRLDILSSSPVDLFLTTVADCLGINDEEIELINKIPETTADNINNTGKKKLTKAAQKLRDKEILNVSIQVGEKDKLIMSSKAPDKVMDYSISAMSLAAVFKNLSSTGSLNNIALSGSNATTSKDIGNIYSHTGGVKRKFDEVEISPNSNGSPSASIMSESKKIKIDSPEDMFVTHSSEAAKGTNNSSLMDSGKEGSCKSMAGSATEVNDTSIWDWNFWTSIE
# Protocol: A fluorescein-tagged 30 amino acid C-terminal activation domain of CgPdr1 (FITC-[…] (SEQ ID NO: 1)) CgPdr1 AD30 was purchased as a synthetic peptide from Pepide2.0. The CgGal11A KIX domain was expressed as a His6-GST fusion protein and purified by affinity chromatography with Ni-NTA resin (Qiagen) and size exclusion chromatography (Sephadex 75, Pharmacia). […] For small molecule screening, fluorescein-CgPdr1 AD30 was held at a concentration of 30 nM and the GST-tagged CgGal11A KIX was at a concentration of 1 μM (above the Kd). The screen was carried out in duplicate and the volume in each well was 25 μL.
# To measure the dissociation constant (Kd) of CgPdr1 AD30, FITC labeled CgPdr1 AD30 was held at a concentration of 30 nM and the GST-tagged CgGal11A KIX was prepared with concentrations ranging from 0 to 300 μM. The IC50 for iKIX-1 binding was measured with GST-tagged CgGal11A KIX held at a constant 3 μM concentration, iKIX-1 was titrated from 0 to 1000 μM and 30 nM FITC-labeled CgPdr1 AD30 was added subsequently with an HP D300 digital dispenser (Tecan Group. Maennerdorf, Switzerland). All experiments were carried out in duplicate and the s.d. is reported at each point on the plot.
# The FP titration curve of the CgPdr1 AD30 was fitted to GraphPad Prisms (La Jolla, Calif., USA) One site-total binding equation (equation 1). […]
# HepG2 cells = test: HepG2 cell viability (CellTiter-Glo); format: cell-based, Human; conditions: 72 hours
# Protocol: HepG2 (ATCC HB-8065) cell viability was assessed using the CellTiter-Glo assay kit (Promega). HepG2 cells (N=4,500) were seeded in each well in 100 μL MEM+10% FBS in 96-well CellBIND (Corning) plates. After 24 hours, iKIX1 was added to final concentrations indicated for a final volume of 150 μL. HepG2 cells were incubated with iKIX1 for another 72 hours before CellTiter-Glo signal was assessed with an Envision 2103 Multilabel plate reader according to the manufacturer's instructions.
# [1] = test system: Gal11/Med15 recruitment to Pdr1-regulated target genes; test: Chromatin immunoprecipitation (ChIP) assay; format: cell-based, Saccharomyces cerevisiae
# Protocol: (§1) ChIP was performed according to standard procedures (see. e.g., McConnell A D, Gelbart M E, Tsukiyama T. Histone fold protein Dls1p is required for Isw2-dependent chromatin remodeling in vivo. Mol Cell Biol. 2004; 24(7):2605-13. PMCID: 371119). Briefly, cells were grown to saturation then washed 2 times with sterilized Milli-Q (Millipore) water, resuspended to an OD600 of 0.8 in YP (1% yeast extract, 2% bacto peptone) and then grown for 6 hours at 30° C. with shaking in the presence of DMSO (vehicle) or iKIX1. Cultures were induced with ketoconazole to a final concentration of 40 μM and harvested at the times indicated. 2 mL of culture was harvested at 0′ and 15′ for matched transcription samples; RNA was prepared as described below. Cells were fixed with 1% formaldehyde (final) for 15 minutes with swirling and then quenched with 125 mM glycine (final) for 5 min. with swirling. Cells were pelleted, washed with TBS+125 mM glycine and then TBS. Cells were lysed in buffer containing 50 mM HEPES, pH 7.5, 140 mM NaCl, 1% Triton X-100, 0.1% sodium deoxycholate, 1 mM EDTA and protease inhibitors and 0.5 mm glass beads. Glass beads were removed by centrifugation before cell lysate was sonicated to obtain 150 to 400 base pair fragments. […]
# [2] = test system: ScPdr1 target genes (ScPDR5, ScSNQ2); test: Transcription assay, quantitative real-time PCR of ScPdr1 target genes; format: cell-based, Saccharomyces cerevisiae; conditions: ketoconazole induced
# Protocol: as §1, with “beads.” for “beads. Glass beads were removed by centrifugation before cell lysate was sonicated to obtain 150 to 400 base pair fragments.”
# For harvest and preparation of RNA. cells equivalent to an OD600 of 0.4 were centrifuged at 4,000 rpm for 4 minutes and then resuspended in 700 μL Trizol. […] Quantitative real-time PCR reactions were run and analyzed on a Roche LightCycler 480 system. […]
# Candida albicans SC5314 = test: Broth dilution MIC
# Protocol: (§2) Antifungal susceptibility testing was carried out using broth dilution assays which examined effects of two-fold dilutions of compounds on cellular growth. The minimum inhibitory concentration (MIC) was defined as the drug concentration at which the optical density was equal to or decreased more than 50% from that of the drug-free culture.
# Candida albicans DSY2621 = test: Broth dilution MIC
# Protocol: as §2
# [3] = test system: Saccharomyces cerevisiae DSY2094; test: Broth dilution MIC
# Protocol: as §2
compound,measurement,setting,value
"N#CCC(=O)NNC(=S)Nc1ccc(Cl)c(Cl)c1 [iKIX1, 2-(2-Cyanoacetyl)-N-(3,4-dichlorophenyl)hydrazinecarbothioamide]",Ki,CgGal11A KIX domain,18.1 µM
same,concentrations that inhibit viability of HepG2 cells,HepG2 cells,> 50 µM
same,IC50,"HepG2 cells; Homo sapiens, HepG2, read-out: IC50, toxicity in HepG2 cells",~100 µM
same,constitutive occupancy of Pdr1 at Pdr1-regulated target genes,[1]; 20 μM iKIX1,did not impede the constitutive occupancy of Pdr1
same,ketoconazole-induced recruitment of Gal11/Med15 to promoters of PDR5 and SNQ2,[1]; iKIX1 pre-treatment,ketoconazole-induced recruitment of Gal11/Med15 was abrogated
same,azole-induced transcription of ScPdr1 target genes,[2],strongly inhibited azole-induced transcription of ScPdr1 target genes
same,MIC,Candida albicans SC5314,12.5 µM
same,MIC,Candida albicans DSY2621,12.5 µM
same,MIC,[3],12.5 µM
